Assays:
Assay in all cases: cell-based
TraR = biological target: T1, TraR (Agrobacterium tumefaciens, UniProt P33905); details: for A. tumefaciens-TraR Activation [%]: 10 μM ligand; for A. tumefaciens-TraR Inhibition [%]: 10 μM synthetic ligand against 100 nM OOHL
T1 construct: These strains lack their AHL synthase (I) genes, but retain their native R genes; endogenous in cells; host or cells: A. tumefaciens WCF47 (Δ-traI) with PtraI-lacZ plasmid pCF372
Protocol: A. tumefaciens reporter gene assay protocols. […] An overnight culture of A. tumefaciens WCF47 (pCF372) was diluted to an OD600 of 0.1 in fresh AB minimal medium containing 400 μg/mL octopine and 50 μg/mL streptomycin. A 200 μL-portion of the diluted culture was added to each well of the multititer plate containing AHLs. Plates were grown at 28° C. for 18-20 h in a rotary shaking incubator (200 rpm). The cultures were then assayed for β-galactosidase activity following the Miller assay method. Briefly, 200 μL aliquots of bacteria from each of the wells were added to wells of a polystyrene 96-well plate and the OD600 of each well was recorded. Next, 50 μL aliquots from each well were transferred to a solvent resistant 96-well plate containing 200 μL Z buffer, 8 μL CHCl3 and 4 μL 0.1% aq. sodium dodecylsulfate (SDS). This suspension was mixed via repetitive pipetting, after which the CHCl3 was allowed to settle. A 100-μL aliquot from each well was transferred to a fresh polystyrene 96-well plate, and 20 μL of substrate, o-nitrophenyl-β-D-galactopyranoside (ONPG, 4 μg/mL in phosphate buffer), was added at time zero. After the development of appropriate yellow color (ca. 15-35 min), the reaction was terminated by the addition of 50 μL of 1 M Na2CO3. Absorbance at 420 nm and 550 nm was measured for each well using a plate reader, and Miller units were calculated according to standard methods.
(§1) Dose response reporter gene assays. […] IC50 and EC50 values were calculated using GraphPad Prism software (v. 4.0) using a sigmoidal curve fit.
A. tumefaciens reporter gene assay protocols. […] An overnight culture of A. tumefaciens WCF47 (pCF372) was diluted 1:10 with fresh AB minimal medium containing 400 μg/mL octopine and 50 μg/mL streptomycin. A 200 μL portion of the diluted culture was added to each well of the multititer plate containing AHLs. Plates were incubated at 28° C. for 18-24 h. The cultures were then assayed for β-galactosidase activity following the Miller assay method. Briefly, 200 μL aliquots of bacteria from each of the wells were added to wells of a 96-well multititer plate, and the OD600 of each well was recorded. Next, 50 μL aliquots from each well were transferred to a solvent resistant 96-well multititer plate containing 200 μL Z buffer, 8 μL CHCl3 and 4 μL 0.1% aq. SDS. This suspension was mixed via repetitive pipetting, after which the CHCl3 was allowed to settle. A 100 μL aliquot from each well was transferred to a fresh 96-well multititer plate, and 20 μL of substrate, o-nitrophenyl-β-D-galactopyranoside (ONPG, 4 μg/mL in phosphate buffer), was added at time zero. After the development of appropriate yellow color (ca. 20-30 min), the reaction was terminated by the addition of 50 μL of 1 M Na2CO3. Absorbances at 420 nm and 550 nm were measured for each well using a plate reader, and Miller units were calculated according to standard methods.
as §1

LasR [1] = biological target: T2, LasR (Pseudomonas aeruginosa, UniProt P25084); assay type: cell-based; details: for E. coli-LasR Inhibition [%]: 5 μM synthetic ligand against 7.5 nM OdDHL
T2 construct: expressed in transfected cells; host or cells: E. coli DH5α (pJN105L pSC11), arabinose-induced
Protocol: (§2) E. coli LasR reporter gene assay protocols. […] An overnight culture of E. coli DH5a (pJN105L pSC11) grown at 37° C. was subculture by diluting 1/10 in fresh LB medium containing 100 μg/mL ampicillin and 15 μg/mL gentamicin and shaking at 37° C. until OD600=0.3. Arabinose (4 mg/mL) was then added to induce the LasR promoter and a 200 μL-portion of this culture was added to each well of the multititer plate containing AHLs. Plates were grown at 37° C. for 2 hours in a rotary shaking incubator (200 rpm; OD600=0.45). The cultures were then assayed for activity following the identical β-galactosidase assay protocols used in the A. tumefaciens reporter gene assays.
as §1
(§3) E. coli LasR reporter gene assay protocols. […] An overnight culture of E. coli DH5α (pJN105L pSC11) was diluted 1:10 with fresh LB medium containing 100 μg/mL ampicillin and 15 μg/mL gentamicin. This sub-culture was incubated at 37° C. until OD600=0.3 (4-6 h). Arabinose (4 mg/mL) was then added to induce the LasR promoter, and a 200 μL portion of this culture was added to each well of the multititer plate containing AHLs. Plates were incubated at 37° C. until OD600=0.45 (4-6 h). The cultures were then assayed for LasR activity following the identical β-galactosidase assay protocols used in the A. tumefaciens reporter gene assays (see above).
as §1

LasR [2] = biological target: T2, LasR; details: for E. coli-LasR Activation [%]: 5 μM ligand; for EC50: read-out: LasR EC50
Protocol: as §2, §1, §3, §1

LuxR [3] = biological target: T3, LuxR (Aliivibrio fischeri, UniProt P35327); assay type: cell-based, Vibrio fischeri; details: for V. fischeri-LuxR Inhibition [%]: 5 μM synthetic ligand against 5 μM OHHL, V. fischeri ES114 (Δ-luxI), normalized to OHHL
T3 construct: a Δ-luxI derivative of V. fischeri ES114, in which the native lux operon behaves as the bioluminescent reporter; endogenous in cells; host or cells: V. fischeri ES114 (Δ-luxI)
Protocol: (§4) Luminescence assays. For agonism assays, an appropriate amount of AHL stock solution was added into a 96-well plate. An overnight culture of E. coli or V. fischeri was diluted 1:10 with appropriate media (LB plus 10 μg/mL tetracycline for E. coli; LBS for V. fischeri). A 200-μL portion of the diluted culture was added to each well of the plate. Plates were grown for 4-8 h with shaking (200 rpm; 30° C. for E. coli and RT for V. fischeri). Luminescence was measured using a multilabel plate reader and normalized to cell density. […] All assays were performed in triplicate. Graphpad Prism software was used to calculate IC50 and EC50 values.
(§5) Vibrio fischeri assay procedures. […] An overnight culture of V. fischeri ES114 (WT, Δ-luxI or Δ-luxR) was diluted 1:10 with LBS medium. A-200 μL portion of the diluted culture was added to each well of the plate. Plates were grown at RT with shaking (200 rpm) until the OD600=0.35-0.4 (4-6 h). Luminescence then was measured and normalized to cell density per well. […] All assays were performed in triplicate. IC50 and EC50 values were calculated using GraphPad Prism software using a sigmoidal curve fit.
(§6) V. fischeri reporter gene assay protocols. […] An overnight culture of V. fischeri ES114 (D-luxI) was diluted 1:10 with LBS medium. A 200-μL portion of the diluted culture was added to each well of the multititer plate. Plates were grown at RT with shaking (200 rpm) until the OD600=0.35-0.4 (4-6 h). Luminescence then was measured and normalized to cell density per well.
as §1
as §6, with “(Δ-luxI)” for “(D-luxI)”, “A200 μL” for “A 200-μL”, “incubated” for “grown”, “RT” for “RT with shaking (200 rpm)”
as §1

LuxR [4] = biological target: T3, LuxR; parameters: species or system Vibrio fischeri; details: for V. fischeri-LuxR Activation [%]: 200 μM ligand
Protocol: as §4, §5, §6, §1
as §6, with “(Δ-luxI)” for “(D-luxI)”, “A200 μL” for “A 200-μL”, “incubated” for “grown”, “RT” for “RT with shaking (200 rpm)”
as §1

[5] = A. tumefaciens WCF47 (pCF372), normalized to OOHL
[6] = E. coli DH5α (pJN105L pSC11), normalized to OdDHL
[7] = V. fischeri ES114 (Δ-luxI), normalized to OHHL

T1 sequence (P33905 whole entry): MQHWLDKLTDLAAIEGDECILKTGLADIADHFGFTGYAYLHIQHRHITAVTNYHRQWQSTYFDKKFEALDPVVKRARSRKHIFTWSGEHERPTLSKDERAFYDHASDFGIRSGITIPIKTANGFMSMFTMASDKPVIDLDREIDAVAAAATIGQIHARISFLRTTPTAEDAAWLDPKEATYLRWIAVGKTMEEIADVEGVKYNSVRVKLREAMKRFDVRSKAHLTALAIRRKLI
T2 sequence (P25084 whole entry): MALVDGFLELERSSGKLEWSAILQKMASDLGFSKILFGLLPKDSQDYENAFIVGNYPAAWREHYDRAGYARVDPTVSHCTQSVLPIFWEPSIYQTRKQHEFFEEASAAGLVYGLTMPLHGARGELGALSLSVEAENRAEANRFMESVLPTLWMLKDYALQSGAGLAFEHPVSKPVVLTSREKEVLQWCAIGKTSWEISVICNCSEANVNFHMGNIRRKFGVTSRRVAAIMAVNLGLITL
T3 sequence (P35327 whole entry): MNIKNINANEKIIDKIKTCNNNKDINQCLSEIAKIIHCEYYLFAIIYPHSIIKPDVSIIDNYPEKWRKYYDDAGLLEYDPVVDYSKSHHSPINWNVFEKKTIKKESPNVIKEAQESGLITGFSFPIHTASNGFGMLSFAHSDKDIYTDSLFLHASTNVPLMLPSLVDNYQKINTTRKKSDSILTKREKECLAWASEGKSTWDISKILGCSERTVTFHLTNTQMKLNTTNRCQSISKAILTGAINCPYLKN

`C=CCCC(=O)N[C@H]1CCOC1=O` [A23] was tested, and the “A. tumefaciens-TraR Activation [%]” value (TraR; [5]) was 0%, the “A. tumefaciens-TraR Inhibition [%]” value (TraR; [5]) was 5% and the “E. coli-LasR Inhibition [%]” value (LasR [1]; [6]) was 12%. For the same molecule, the “E. coli-LasR Activation [%]” value (LasR [2]; [6]) was 0%, the “V. fischeri-LuxR Inhibition [%]” value (LuxR [3]) was 18% and the “V. fischeri-LuxR Activation [%]” value (LuxR [4]; [7]) was 2%.

`O=C(CCCc1ccccc1)N[C@@H]1CCOC1=O` [A26] was tested, and the “A. tumefaciens-TraR Activation [%]” value (TraR; [5]) was 0%, the “A. tumefaciens-TraR Inhibition [%]” value (TraR; [5]) was 31% and the “E. coli-LasR Activation [%]” value (LasR [2]; [6]) was 0%. The “V. fischeri-LuxR Inhibition [%]” value (LuxR [3]) was 41% and the “V. fischeri-LuxR Activation [%]” value (LuxR [4]; [7]) was 3%.

With 4-hydroxy PHL [C23] the “Activation (%)” value (TraR; A. tumefaciens-TraR, Library C primary agonism screen) was 0%, the “Inhibition (%)” value (TraR; A. tumefaciens-TraR, Library C primary antagonism screen) was 3% and the “Inhibition (%)” value (LasR [1]; E. coli-LasR, Library C primary antagonism screen) was 7%. The “Activation (%)” value (LasR [2]; E. coli-LasR, Library C primary agonism screen) was 0%, the “Inhibition (%)” value (LuxR [3]; V. fischeri-LuxR, Library C primary antagonism screen) was 12% and the “Activation (%)” value (LuxR [4]; V. fischeri-LuxR, Library C primary agonism screen) was 2%.

For `CCCC(=O)CC(=O)N[C@H]1CCOC1=O` [compound 3], the activation at 10 µM (TraR; read-out: A. tumefaciens-TraR Activation [%]) was 1%, the inhibition at 10 µM (TraR; read-out: A. tumefaciens-TraR Inhibition [%], 10 μM synthetic ligand against 100 nM OOHL, A. tumefaciens WCF47 (pCF372), normalized to OOHL) was 89% and the inhibition at 5 µM (LasR [1]; read-out: E. coli-LasR Inhibition [%], 5 μM synthetic ligand against 7.5 nM OdDHL, E. coli DH5α (pJN105L pSC11), normalized to OdDHL) was 15%. For the same molecule, the activation at 5 µM (LasR [2]; read-out: E. coli-LasR Activation [%], 5 μM ligand, E. coli DH5α (pJN105L pSC11), normalized to OdDHL) was 1%, the EC50 (LuxR [4]; LuxR EC50, V. fischeri ES114 (Δ-luxI)) was 3 µM and the activation at 200 µM (LuxR [4]; read-out: V. fischeri-LuxR Activation [%], 200 μM ligand, V. fischeri ES114 (Δ-luxI), normalized to OHHL) was 100%.

For 4-N-tertbutoxycarbonyl-PHL [B25], the “A. tumefaciens-TraR Activation [%]” value (TraR; [5]) was 0%, the “A. tumefaciens-TraR Inhibition [%]” value (TraR; [5]) was 11% and the “E. coli-LasR Inhibition [%]” value (LasR [1]; [6]) was 10%. The “E. coli-LasR Activation [%]” value (LasR [2]; [6]) was 27%, the EC50 (LasR [2]) was over 200 µM and the “V. fischeri-LuxR Inhibition [%]” value (LuxR [3]) was 33%. The “V. fischeri-LuxR Activation [%]” value (LuxR [4]; [7]) was 2%.

In the case of `COc1ccccc1C1CCN(c2ccc(C=CC(=O)NC3CCOC3=O)cc2[N+](=O)[O-])CC1` (centres unmarked) [D18], the “A. tumefaciens-TraR Activation [%]” value (TraR; [5]) is reported as 0%, the “A. tumefaciens-TraR Inhibition [%]” value (TraR; [5]) is reported as 16% and the “E. coli-LasR Inhibition [%]” value (LasR [1]; [6]) is reported as 34%. For the same molecule, the “E. coli-LasR Activation [%]” value (LasR [2]; [6]) was 32%, the “LasR: maximum induction value achievable (value in parentheses)” value (LasR [2]; at 200 μM ligand, relative to natural ligand) was 32% and the EC50 (LasR [2]) was 0.47 µM. For the same molecule, the “V. fischeri-LuxR Inhibition [%]” value (LuxR [3]) was 19% and the “V. fischeri-LuxR Activation [%]” value (LuxR [4]; [7]) was 2%.

`O=C(CCC(=O)OC(C(=O)c1ccccc1)c1ccccc1)N[C@H]1CCOC1=O` (some centres unmarked) [D19] was tested, and the “A. tumefaciens-TraR Activation [%]” value (TraR; [5]) was 0%, the “A. tumefaciens-TraR Inhibition [%]” value (TraR; [5]) was 11% and the “E. coli-LasR Inhibition [%]” value (LasR [1]; [6]) was 17%. For the same molecule, the “E. coli-LasR Activation [%]” value (LasR [2]; [6]) was 7%, the “V. fischeri-LuxR Inhibition [%]” value (LuxR [3]) was 30% and the “V. fischeri-LuxR Activation [%]” value (LuxR [4]; [7]) was 1%.

From patent US7910622B2, “Modulation of bacterial quorum sensing with synthetic ligands” (Wisconsin Alumni Research Foundation, priority 2007, dated 2011)
